{"source": "patent US20240166596A1", "about": "“SULFAMOYL BENZENE DERIVATIVES AND USES THEREOF” (AphioTx Inc., priority 2021, published 2024)", "key": {"[1]": {"target": "T1, rPanx1 (Rattus norvegicus Pannexin-1) expressed in 293T cells (Rattus norvegicus, UniProt P60570)", "T1 construct": "expressed in transfected cells; host or cells: Human embryonic kidney-293T cells (ATCC), transient Lipofectamine 2000 transfection", "T1 sequence (P60570 whole entry)": "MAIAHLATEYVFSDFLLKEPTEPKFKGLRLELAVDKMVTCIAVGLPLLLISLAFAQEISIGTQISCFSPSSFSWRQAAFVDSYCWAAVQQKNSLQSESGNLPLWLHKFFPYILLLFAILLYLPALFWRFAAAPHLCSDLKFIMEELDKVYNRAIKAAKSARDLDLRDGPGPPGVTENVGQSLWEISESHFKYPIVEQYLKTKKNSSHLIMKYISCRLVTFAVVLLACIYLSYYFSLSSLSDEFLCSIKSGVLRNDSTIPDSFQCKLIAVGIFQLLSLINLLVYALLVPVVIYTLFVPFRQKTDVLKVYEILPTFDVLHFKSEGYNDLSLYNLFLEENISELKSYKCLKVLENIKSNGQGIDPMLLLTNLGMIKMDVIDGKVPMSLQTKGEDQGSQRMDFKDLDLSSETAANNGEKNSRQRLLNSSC", "experiment": "Whole-cell patch-clamp of Panx1 currents in transfected 293T cells", "format": "cell-based, Homo sapiens", "method": "To further compare the effects of probenecid, Compounds 1 and 5 on Pannexin-1 channels […] Panx-1 was expressed in embryonic kidney-293T cells (293T) and channel activity was assessed at various doses of each compound.\nRattus norvegicus Pannexin-1 (rPanx1) complementary DNA (cDNA) was cloned between BamHI and SalI sites in a pRK5 expression vector (pRK5-rPanx1). Enhanced green fluorescent protein (EGFP) plasmid (pEGFP-C1) was commercially purchased (addgene).\nHuman embryonic kidney-293T cells (293T) were purchased from ATCC and routinely maintained in the laboratory. Adherent 293T cells were grown in Dulbecco's modified Eagle's medium (Thermo Fisher) supplemented with 10% fetal bovine serum (Thermo Fisher) and 1% penicillin-streptomycin (10,000 U/mL; Thermo Fisher) at 37° C. in a 5% CO2 humidified growth incubator. 293T cells between the passages 6-20 were used for experiments. For patch-clamp recordings, 293T cells reaching 40-60% confluency on 35 mm culture plates were transiently transfected using Lipofectamine 2000 (Thermo Fisher) 36-48 hours before experiments, using the manufacturer's protocol. 293T cells were transfected with 2.5 μg pRK5-rPanx1 and 0.5 μg pEGFP-C1 cDNAs at a mixed ratio of 5:1 to identify positively transfected cells.\nOn the day of experiments, transiently transfected 293T cells overexpressing rPanx1 and EGFP cDNAs were seeded onto poly-d-lysine coated glass coverslips at least 2 hours before recordings. […] Data was acquired using Clampex (v.10) software and an Axon Digidata 1550A digitizer (Axon Instruments) at 10 kHz, with currents analyzed offline in Clampfit software (v.10.7). […]\n293T cells were voltage clamped at −60 mV in whole-cell configuration and exposed to a 300 ms voltage ramp (−80 to +80 mV) before stepping back to −60 mV to record rPanx1 voltage-sensitive currents. Baseline currents were first measured in extracellular solution before perfusion of drug compounds in incrementally increasing concentrations. […]"}, "[2]": {"target": "T2, Panx1 channel (Mus musculus, UniProt Q9JIP4)", "T2 construct": "endogenous in cells; host or cells: BV-2 microglia-like cells", "T2 sequence (Q9JIP4 whole entry)": "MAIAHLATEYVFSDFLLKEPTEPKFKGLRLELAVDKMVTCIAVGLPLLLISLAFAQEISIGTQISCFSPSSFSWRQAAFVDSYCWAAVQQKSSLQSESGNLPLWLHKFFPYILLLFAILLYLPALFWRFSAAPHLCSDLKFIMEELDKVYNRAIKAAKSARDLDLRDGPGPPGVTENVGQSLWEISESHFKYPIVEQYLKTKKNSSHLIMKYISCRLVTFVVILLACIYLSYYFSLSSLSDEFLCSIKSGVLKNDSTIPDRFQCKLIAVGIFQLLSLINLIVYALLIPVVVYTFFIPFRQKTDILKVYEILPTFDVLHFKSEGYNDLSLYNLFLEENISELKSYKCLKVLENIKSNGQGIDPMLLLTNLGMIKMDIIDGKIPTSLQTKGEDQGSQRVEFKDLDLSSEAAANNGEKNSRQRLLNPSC", "experiment": "YO-PRO-1 dye uptake assay in BV-2 microglia-like cells (BzATP stimulation)", "format": "cell-based", "conditions": "BV-2 cells; pre-treatment; concentration not given", "method": "After plating into 96 well plates, cell culture media was removed and BV-2 cells were incubated in extracellular solution (ECS) (140 mM NaCl, 4.5 mM KCl, 1.3 mM CaCl2, 10 mM HEPES, and 33 mM glucose; pH7.35, osmolarity 315 mOsm) containing YO-PRO-1 dye (2.5 μM, Invitrogen). After a 5 minute baseline recording, cells were stimulated with 3′-O-(4-benzoyl)benzoyl adenosine 5′-triphosphate (BzATP) (150 μM, Toronto Research Chemicals) and dye-uptake was recorded for 30 minutes. Cell viability was assessed immediately after the 30 minute recording by application of ionomycin (1 μM, Sigma). […] YO-PRO-1 fluorescent emission (491/509) was detected using a FilterMax F5 plate reader (Molecular Devices). Drugs used include (−)-norepinephrine (100 pM-1 μM, Sigma), probenecid (1 mM, Life Technologies), and Compound 1 (10 nM, Derksen et al). Drugs were bath applied in ECS containing YO-PRO-1 dye and incubated at 37° C. for 10 minutes prior to BzATP stimulation. Fluorescent emission at 30 minutes post-BzATP was calculated as an average of the entire imaging field as percent change from baseline, and responses at 30 minutes were averaged over multiple independent experiments. Individual traces of BV-2 YO-PRO-1 dye uptake were taken at 10 minute intervals and represent the average response of all BV-2 cells in the recorded view from a subset of experiments.\nBV-2 microglia-like cells were maintained in DMEM (Gibco) containing 5% fetal bovine serum (Gibco) and 1% penicillin-streptomycin (Gibco) with 5% CO2.\nThe compounds tested were designed to more readily penetrate the blood brain barrier and were therefore predicted to require a lower dose to produce similar effects. Prior to testing the compounds in animals, the compounds were first tested in BV2 microglia-like cells using the YO-PRO-1 Dye Uptake Assay. By using this assay, Panx1 channel activity in response to BzATP stimulation of P2X7, an upstream receptor that causes Panx1 pore formation can be assessed. YO-PRO-1 is a large molecular weight dye that can only enter the cell through large pore ion channels such as Panx1, therefore its uptake correlates with Panx1 channel opening. BzATP stimulation causes a significant increase in YO-PRO-1 dye uptake in cells pre-treated with ECS and vehicle solution (0.1% DMSO) (FIG. 1, B)."}, "[3]": {"tested_on": "C57BL/6J mice", "experiment": "Naloxone-precipitated morphine withdrawal, composite withdrawal score", "format": "in vivo", "conditions": "50 mg/kg, 30 minutes before withdrawal"}, "[4]": {"conditions": "background statement; cited from earlier work"}, "[5]": {"tested_on": "C57BL/6J mice", "experiment": "Naloxone-precipitated morphine withdrawal, composite withdrawal score", "format": "in vivo", "conditions": "50 mg/kg i.p., 60 minutes prior to naloxone", "method": "Adult male C57BL/6J (7-9 weeks) mice were used. Mice were housed under 12/12 hour light/dark cycles with ad libitum access to food and water. Mice were randomly allocated to different test groups. All experiments were approved by the University of Calgary Animal Care Committee and are in accordance with the guidelines of the Canadian Council on Animal Care.\nMorphine sulfate (MS, PCCA) prepared in 0.9% sterile saline solution was injected i.p. into male C57BLJ6J (20-30g) mice. Mice received ascending doses of morphine (i.p.) at 8 hours intervals: day 1, 10mg/kg; day 2, 20 mg/kg; day 3, 30 mg/kg; day 4, 40mg/kg. On day 5, mice received a morning injection of morphine (50 mg/kg). A subset of mice received probenecid (15, 25, and 50 mg/kg i.p., Invitrogen) or Compound 1 (0.1, 0.5 and 1 mg/kg) 1 hour following morphine. Mice then received i.p. naloxone (2 mg/kg, naloxone hydrochloride dihydrate, Sigma) 2 hours following morphine to rapidly induce opioid withdrawal. Control mice received equivalent volumes of 0.9% saline or appropriate vehicle solution (0.1% DMSO in saline) and were challenged with naloxone on day 5. Withdrawal behaviors were then scored for 30 minutes post naloxone injection. Behaviors were scored for occurrence and then scaled for severity at 5-minute intervals. Behaviors that were assigned a standardized score between 0-3 depending on severity were jumping, headshakes, wet-dog shakes, chewing/licking, and teeth chattering. Behaviors that were scored 1 point for presence during a 5-minute interval include piloerection and tremors/twitching. The mice were then weighed following the 30 minutes, and the weight difference was assigned a standardized score dependent on the weight change between 0-3 as well. The scaled and present/absent signs were compiled over the 30 minutes to produce a composite withdrawal score.\nAll data are presented as the mean±standard error mean (s.e.m), and each circle represents an individual animal or experiment. Tests of statistical difference were performed with GraphPad Prism 6 using either an ordinary one-way ANOVA with posthoc Dunnet test, or a two-way ANOVA with post hoc Sidak test. Sample sizes are consistent with those reported in similar studies and provide sufficient power to detect changes with the appropriate statistical analysis. For all experiments, a criterion a level was set at 0.05."}, "[6]": {"tested_on": "C57BL/6J mice", "conditions": "background statement; pharmacological blockade of Panx1; cited from earlier work"}}}
{"smiles": "CCCN(CCC)S(=O)(=O)c1ccc(-c2cn[nH]c2)cc1", "note": "[Compound 5]", "values": [{"measurement": "Panx1 inhibitory potency relative to Probenecid (patch-clamp)", "setting": "[1]; voltage ramp -80 to +80 mV, various doses", "value": "more potent"}, {"measurement": "Panx1 channel activity (BzATP-stimulated YO-PRO-1 dye uptake)", "setting": "[2]", "value": "significantly blocked"}]}
{"smiles": "CCCN(CCC)S(=O)(=O)c1ccc(-c2cnc(N(C)C)nc2)cc1", "note": "[Compound 6]", "values": [{"measurement": "Panx1 channel activity (BzATP-stimulated YO-PRO-1 dye uptake)", "setting": "[2]", "value": "significantly blocked"}]}
{"smiles": "CCCN(CCC)S(=O)(=O)c1ccc(C(=O)O)cc1", "note": "[probenecid, reference compound]", "values": [{"measurement": "Block of Panx1 (inhibition of transfected current)", "setting": "[1]; maximum doses", "value": 100, "unit": "%"}, {"measurement": "Withdrawal behaviors", "setting": "[3]", "value": "not effective"}, {"measurement": "Solubility", "setting": "[4]", "value": "poor solubility"}, {"measurement": "Composite withdrawal score", "setting": "[5]", "value": "significantly reduced withdrawal score"}, {"measurement": "Withdrawal behaviors in mice", "setting": "[6]", "value": "ameliorated withdrawal behaviors"}]}
{"smiles": "CN(C)S(=O)(=O)c1ccc(C(O)(C(F)(F)F)C(F)(F)F)cc1", "note": "[Compound 2, 4-(1,1,1,3,3,3-hexafluoro-2-hydroxypropan-2-yl)-N,N-dimethylbenzenesulfonamide]", "values": [{"measurement": "Panx1 channel activity (BzATP-stimulated YO-PRO-1 dye uptake)", "setting": "[2]", "value": "significantly blocked"}]}
{"smiles": "CCCN(CCC)S(=O)(=O)c1ccc(-c2ccc3[nH]ncc3c2)cc1", "note": "[Compound 3, 4-(1H-indazol-5-yl)-N,N-dipropylbenzenesulfonamide]", "values": [{"measurement": "Panx1 channel activity (BzATP-stimulated YO-PRO-1 dye uptake)", "setting": "[2]", "value": "significantly blocked"}]}
{"smiles": "CCCN(CCC)S(=O)(=O)c1ccc(-c2ccnc(N3CCNCC3)c2)cc1", "note": "[Compound 4]", "values": [{"measurement": "Panx1 channel activity (BzATP-stimulated YO-PRO-1 dye uptake)", "setting": "[2]", "value": "significantly blocked"}]}
